Results on three compounds are retold here after US5332739A, “Pyrimidinedione derivatives and antiarrhythmic agents containing same” (Mitsui Toatsu Chemicals, Incorporated, priority 1990, dated 1994).

Data set [1] concerns ventricular muscle (right ventricle). In words: Influence on Ventricular Muscle Refractory Period (ERP). Type of data set: in vivo, mongrel adult dog. As to conditions: Canis lupus familiaris, iv, anesthetized dog, read-out: ERP (%; extensibility of refractory period); for change in vivo at 0.1 mg/kg: Dose 0.1 mg/kg i.v.; for change in vivo at 0.3 mg/kg: Dose 0.3 mg/kg i.v.; for change in vivo at 1 mg/kg: Dose 1.0 mg/kg i.v.; for change in vivo at 3 mg/kg: Dose 3.0 mg/kg i.v.

Data set [2] concerns Purkinje fiber of the right ventricular free wall. In words: Influence on Myocardial Action Potential Duration Time (APD75). The data set is classed as cell-based, hybrid adult dog. As to conditions: Canis lupus familiaris, 20 min, 20 minutes' incubation, 1 Hz, 37° C.; for percent prolongation of action potential duration (APD75) at 1 µg/mL: Dose 1.0 (μg, ml); for percent prolongation of action potential duration (APD75) at 3 µg/mL: Dose 3.0 (μg, ml); for percent prolongation of action potential duration (APD75) at 10 µg/mL: Dose 10.0 (μg, ml).

Data set [3] in a line: Toxicity Test 1 (oral, mortality 24 hours after administration). As to conditions: mouse, in vivo, 300 mg/kg (P.O), 2 to 4 mice per group, read-out: Mortality Rate (%). The procedure: Each of the compounds prepared in the above-mentioned examples shown in Table B was administered into a mouse (ddy strain, male). In each case, the administration was effected by oral administration in a dose of 300 mg/kg.
A mortality rate (number of specimens: one group=2 to 4 mice) of the mice 24 hours after the administration was calculated, and the results are set forth in Table B.

What is called mortality is the share of the test organisms that died. For `COC(=O)c1ccccc1OCCCN1CCN(c2cc(=O)n(C)c(=O)n2C)CC1` [Compound 21], in data set [1], the change in vivo at 0.1 mg/kg stood at 7.1%, the change in vivo at 0.3 mg/kg was determined as 7.1%, the change in vivo at 1 mg/kg stood at 7.1% and the change in vivo at 3 mg/kg came to 14.3%. In data set [2], this compound yielded a percent prolongation of action potential duration (APD75) at 1 µg/mL of 11%, a percent prolongation of action potential duration (APD75) at 3 µg/mL of 23% and a percent prolongation of action potential duration (APD75) at 10 µg/mL of 26%. Further, the mortality at 24 h in data set [3] stood at 0%.

As to `CC(=O)c1cc(Cl)ccc1OCCCN1CCN(c2cc(=O)n(C)c(=O)n2C)CC1` [Compound 45], in data set [1], the change in vivo at 0.1 mg/kg came to 0%, the change in vivo at 0.3 mg/kg came out at 2.4%, the change in vivo at 1 mg/kg was determined as 9.5% and the change in vivo at 3 mg/kg amounted to 18.6%. In data set [2], this compound came in with a percent prolongation of action potential duration (APD75) at 1 µg/mL of 42%, a percent prolongation of action potential duration (APD75) at 3 µg/mL of 71% and a percent prolongation of action potential duration (APD75) at 10 µg/mL of 75%. The mortality at 24 h in data set [3] came out at 50%.

`Cn1c(N2CCN(CCCOc3ccc(-n4cncn4)cc3)CC2)cc(=O)n(C)c1=O` [Compound 6]: in data set [1], the change in vivo at 0.1 mg/kg turned out to be 0%, the change in vivo at 0.3 mg/kg worked out at 0%, the change in vivo at 1 mg/kg is 0% and the change in vivo at 3 mg/kg was 6.2%. In data set [2], the percent prolongation of action potential duration (APD75) at 1 µg/mL worked out at 5%, the percent prolongation of action potential duration (APD75) at 3 µg/mL came out at 10% and the percent prolongation of action potential duration (APD75) at 10 µg/mL worked out at 25%. In data set [3], the mortality at 24 h was 0%.
